Laboratory results published in article PMC3779521 (Organic letters, 2013).

Test system: CazF
Type: biochemical
Conditions: propargyl donor at MT domain; co-substrate acetoacetyl-SNAC (4)

In the case of C#CC[Se+](CC[C@H](N)C(=O)O)C[C@H]1O[C@@H](n2cnc3c(N)ncnc32)[C@H](O)[C@@H]1O (stereo partly drawn) [compound 2, propargylic Se-adenosyl-L-methionine], the Km is reported as 43.6 µM.
